Measured values published in the NIST ThermoML archive (doi:10.1016/j.fluid.2009.09.005).
± gives the expanded uncertainty stated by the source.

Tests used:
[1] = Capillary rise
[2] = wn = mass fraction of the nth substance listed; settings: Capillary rise

CC(C)C [2-methylpropane]
[1]
Settings	surface tension liquid-gas [mN/m]
313.17 K	8.28 ± 0.45
318.13 K	7.704 ± 0.45
323.16 K	7.182 ± 0.44
328.12 K	6.691 ± 0.44
328.13 K	6.669 ± 0.43

FC(F)C(F)(F)F [pentafluoroethane] + CC(F)F
[2]
Settings	surface tension liquid-gas [mN/m]
243.08 K, w1 = 0.2019	16.5 ± 0.4
243.16 K, w1 = 0.097	17 ± 0.4
243.22 K, w1 = 0.2996	15.6 ± 0.4
248.09 K, w1 = 0.2019	15.8 ± 0.4
248.12 K, w1 = 0.2996	15 ± 0.4
248.13 K, w1 = 0.097	16.2 ± 0.4
253.12 K, w1 = 0.2019	15.1 ± 0.4
253.13 K, w1 = 0.2996	14.3 ± 0.4
253.55 K, w1 = 0.097	15.3 ± 0.4
258.11 K, w1 = 0.097	14.6 ± 0.4
258.16 K, w1 = 0.2019	14.4 ± 0.4
258.16 K, w1 = 0.2996	13.7 ± 0.4
263.06 K, w1 = 0.097	13.9 ± 0.4
263.17 K, w1 = 0.2996	13 ± 0.4
263.19 K, w1 = 0.2019	13.5 ± 0.4
268.12 K, w1 = 0.097	13.3 ± 0.4
268.17 K, w1 = 0.2019	12.9 ± 0.4
268.18 K, w1 = 0.2996	12.2 ± 0.4
273.18 K, w1 = 0.097	12.5 ± 0.4
273.18 K, w1 = 0.2996	11.4 ± 0.4
273.19 K, w1 = 0.2019	12.2 ± 0.4
278.17 K, w1 = 0.2996	10.6 ± 0.4
278.18 K, w1 = 0.097	11.8 ± 0.4
278.42 K, w1 = 0.2019	11.4 ± 0.4
283.13 K, w1 = 0.097	11.2 ± 0.4
283.15 K, w1 = 0.2019	10.6 ± 0.4
283.17 K, w1 = 0.2996	10.1 ± 0.4
288.16 K, w1 = 0.2019	9.9 ± 0.4
288.17 K, w1 = 0.097	10.6 ± 0.4
288.18 K, w1 = 0.2996	9.5 ± 0.4
293.14 K, w1 = 0.2019	9.4 ± 0.4
293.17 K, w1 = 0.097	9.8 ± 0.4
293.18 K, w1 = 0.2996	8.7 ± 0.4
298.08 K, w1 = 0.2019	8.8 ± 0.4
298.1 K, w1 = 0.097	9.2 ± 0.4
298.11 K, w1 = 0.2996	8 ± 0.4
303.13 K, w1 = 0.2019	8 ± 0.4
303.17 K, w1 = 0.097	8.5 ± 0.4
303.18 K, w1 = 0.2996	7.4 ± 0.4
308.1 K, w1 = 0.097	7.9 ± 0.4
308.1 K, w1 = 0.2019	7.4 ± 0.4
308.12 K, w1 = 0.2996	6.7 ± 0.4
313.11 K, w1 = 0.2019	6.7 ± 0.4
313.16 K, w1 = 0.097	7.2 ± 0.4
313.19 K, w1 = 0.2996	6.1 ± 0.4
318.11 K, w1 = 0.2019	6.1 ± 0.4
318.12 K, w1 = 0.097	6.5 ± 0.4
318.16 K, w1 = 0.2996	5.5 ± 0.4
323.14 K, w1 = 0.2019	5.4 ± 0.4
323.16 K, w1 = 0.097	5.8 ± 0.4
323.17 K, w1 = 0.2996	5 ± 0.4
328.1 K, w1 = 0.2019	4.8 ± 0.4
328.11 K, w1 = 0.097	5.2 ± 0.4
328.16 K, w1 = 0.2996	4.3 ± 0.4

CC(F)F [1,1-difluoroethane]
[1]
Settings	surface tension liquid-gas [mN/m]
298.18 K	9.747 ± 0.4
303.23 K	9.062 ± 0.4
308.19 K	8.505 ± 0.4
313.13 K	7.731 ± 0.4
